The text below walks through data of US6809065B2, “Herbicide containing substituted pyrazole derivative as active ingredient” (SDS Biotech K.K., priority 2001, dated 2004).

The test system of series [1] is Chenopodium album. Nature of the series: Upland soil treatment (Test Example 2). The format is in vivo. The conditions noted are these: soil surface treatment next day after sowing, wettable powder, 1 kg active ingredient per hectare, evaluated 21st day after application. The method, boiled down:
(§1)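 Scored 21 days post-application on an index scale where higher values mean greater herbicidal effect on weeds and lower values mean greater crop safety. Treatment was a water-diluted wettable powder sprayed evenly onto the soil surface at 1 kg active ingredient per hectare, one day after seeding.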

In series [2] the test system is Setaria viridis. Nature of the series: Upland soil treatment (Test Example 2). Type of series: in vivo. The following applies: soil surface treatment next day after sowing, wettable powder, 1 kg active ingredient per hectare, evaluated 21st day after application. The method, boiled down: as §1
Series [3] relates to Digitaria adscendens. The series can be described thus: Upland soil treatment (Test Example 2). Type of series: in vivo. The conditions noted are these: soil surface treatment next day after sowing, wettable powder, 1 kg active ingredient per hectare, evaluated 21st day after application. In a few lines: as §1
The subject of series [4] is Stellaria media. Nature of the series: Upland soil treatment (Test Example 2). The conditions noted are these: soil surface treatment next day after sowing, wettable powder, 1 kg active ingredient per hectare, evaluated 21st day after application. Type of series: in vivo. In a few lines:
as §1

Another series deals with Monochoria vaginalis. The series can be described thus: Paddy field treatment (Test Example 3). Type of series: in vivo. The conditions noted are these: paddy pot, submerged 4 cm, dropped on water surface 10th day after transplantation, 1 kg active ingredient per hectare, evaluated 21st day. The method, boiled down: (§2)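 Index scoring of herbicidal effect and rice safety 21 days after treatment. The wettable powder, dosed at 1 kg a.i./ha, was dripped onto flooded pots (4 cm water) 10 days after transplanting two-leaf Koshihikari rice. Weed seeds had been sown into the puddled soil.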

The test system of a further series is Ammannia multiflora. The series can be described thus: Paddy field treatment (Test Example 3). Type of series: in vivo. The conditions noted are these: paddy pot, submerged 4 cm, dropped on water surface 10th day after transplantation, 1 kg active ingredient per hectare, evaluated 21st day. In a few lines:
as §2

For another series, the system named is Scirpus juncoides. The series can be described thus: Paddy field treatment (Test Example 3). The format is in vivo. The following applies: paddy pot, submerged 4 cm, dropped on water surface 10th day after transplantation, 1 kg active ingredient per hectare, evaluated 21st day. The method, boiled down:
as §2

Series [5] concerns wheat (Triticum aestivum). Nature of the series: Upland field foliage treatment (Test Example 1), crop. The conditions noted are these: foliage treatment 14th day after sowing, 1 kg active ingredient per hectare, evaluated 21st day, lower index = higher safety. Type of series: in vivo. The method, boiled down: (§3)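 Scored on an index 21 days after treatment: a high value on weeds means more herbicidal effect, and a low value on crops means more crop safety. Treatment was a foliar spray of water-diluted wettable powder at 1 kg a.i./ha, applied to plants 14 days after sowing in upland soil.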

Series [6] deals with soybean (Glycine max). The description is as above. Type of series: in vivo. The conditions noted are these: foliage treatment 14th day after sowing, 1 kg active ingredient per hectare, evaluated 21st day, lower index = higher safety. In a few lines:
as §3

The subject of series [7] is wheat (Triticum aestivum). Nature of the series: Upland soil treatment (Test Example 2), crop. Type of series: in vivo. The following applies: soil surface treatment next day after sowing, 1 kg active ingredient per hectare, evaluated 21st day, lower index = higher safety. In a few lines: as §1
Series [8] deals with soybean (Glycine max). Nature of the series: Upland soil treatment (Test Example 2), crop. The format is in vivo. The conditions noted are these: soil surface treatment next day after sowing, 1 kg active ingredient per hectare, evaluated 21st day, lower index = higher safety. The method, boiled down: as §1
For a further series, the system named is Echinochloa spp. Nature of the series: Paddy field treatment (Test Example 3). Type of series: in vivo, Echinochloa crusgalli. The following applies: paddy pot, submerged 4 cm, dropped on water surface 10th day after transplantation, 1 kg active ingredient per hectare, evaluated 21st day. The method, boiled down:
as §2

Series [9] deals with rice (Oryza sative, variety: Koshihikari). Nature of the series: Paddy field treatment (Test Example 3), crop. Type of series: in vivo, Oryza sativa. The following applies: transplanted rice two-leaf period, water surface treatment 10th day after transplantation, 1 kg active ingredient per hectare, evaluated 21st day, lower index = higher safety. In a few lines: as §2
The test system of series [10] is Chenopodium album. The series can be described thus: Upland field foliage treatment (Test Example 1). Type of series: in vivo. The conditions noted are these: foliage treatment 14th day after sowing, wettable powder, 1 kg active ingredient per hectare, evaluated 21st day after application. The method, boiled down: as §3
Series [11] relates to Setaria viridis. The series can be described thus: Upland field foliage treatment (Test Example 1). The conditions noted are these: foliage treatment 14th day after sowing, wettable powder, 1 kg active ingredient per hectare, evaluated 21st day after application. The format is in vivo. The method, boiled down: as §3
Series [12] concerns Digitaria adscendens. The series can be described thus: Upland field foliage treatment (Test Example 1). The format is in vivo. The conditions noted are these: foliage treatment 14th day after sowing, wettable powder, 1 kg active ingredient per hectare, evaluated 21st day after application. The method, boiled down:
as §3

Series [13] relates to Stellaria media. Nature of the series: Upland field foliage treatment (Test Example 1). The format is in vivo. The following applies: foliage treatment 14th day after sowing, wettable powder, 1 kg active ingredient per hectare, evaluated 21st day after application. The method, boiled down: as §3

The structures appear in SMILES notation.

Turning to `COC=C(Cn1nc(-c2cc(Cl)cc(Cl)c2)c(Br)c1C)C(=O)OC` [Compound 32], the “Herbicidal activity Chenopodium album” value was 4 (herbicidal effect of not less than 70% by weight and less than 90% by weight) in the series with Chenopodium album [1]; 4 (herbicidal effect of not less than 70% by weight and less than 90% by weight) in the series with Chenopodium album [10]. In addition, the “Herbicidal activity Setaria viridis” value in the series with Setaria viridis [2] is 4 (herbicidal effect of not less than 70% by weight and less than 90% by weight); in the series on Setaria viridis [11], 4 (herbicidal effect of not less than 70% by weight and less than 90% by weight). Also, the “Herbicidal activity Digitaria adscendens” value in the series on Digitaria adscendens [3] was 4 (herbicidal effect of not less than 70% by weight and less than 90% by weight); in the series with Digitaria adscendens [12] it was 4 (herbicidal effect of not less than 70% by weight and less than 90% by weight). Besides, the “Herbicidal activity Stellaria media” value in the series on Stellaria media [4] was 4 (herbicidal effect of not less than 70% by weight and less than 90% by weight); in the series on Stellaria media [13] it was 4 (herbicidal effect of not less than 70% by weight and less than 90% by weight). For the same compound, the “Herbicidal activity Monochoria vaginalis” value in the series on Monochoria vaginalis is 3 (herbicidal effect of not less than 50% by weight and less than 70% by weight). In addition, the “Herbicidal activity Ammannia multiflora” value in the series on Ammannia multiflora is 3 (herbicidal effect of not less than 50% by weight and less than 70% by weight). Further, the “Herbicidal activity Scirpus juncoides” value in the series with Scirpus juncoides is 3 (herbicidal effect of not less than 50% by weight and less than 70% by weight). Further, the “Herbicidal activity Triticum aestivum” value in series [5] is 0 (herbicidal effect of not less than 0% by weight and less than 10% by weight); in [7], 0 (herbicidal effect of not less than 0% by weight and less than 10% by weight). Also, the “Herbicidal activity Glycine max” value is 0 (herbicidal effect of not less than 0% by weight and less than 10% by weight) in the series with soybean (Glycine max) [6]; 0 (herbicidal effect of not less than 0% by weight and less than 10% by weight) in the series on soybean (Glycine max) [8]. Besides, the “Herbicidal activity Echinochloa spp.” value in the series on Echinochloa spp. was 3 (herbicidal effect of not less than 50% by weight and less than 70% by weight). For the same compound, the “Herbicidal activity Oryza sativa” value in series [9] is 0 (herbicidal effect of not less than 0% by weight and less than 10% by weight).

Consider `COC=C(Cn1nc(-c2cccc(Cl)c2Cl)c(Cl)c1C)C(=O)OC` [Compound 20], for which the “Herbicidal activity Chenopodium album” value with Chenopodium album [1] and in the series with Chenopodium album [10] was 5 (herbicidal effect of not less than 90% by weight) in each case. Also, the “Herbicidal activity Setaria viridis” value with Setaria viridis [2] is 4 (herbicidal effect of not less than 70% by weight and less than 90% by weight); in the series on Setaria viridis [11] it was 4 (herbicidal effect of not less than 70% by weight and less than 90% by weight). Also, the “Herbicidal activity Digitaria adscendens” value was 4 (herbicidal effect of not less than 70% by weight and less than 90% by weight) in the series on Digitaria adscendens [3]; 4 (herbicidal effect of not less than 70% by weight and less than 90% by weight) in the series on Digitaria adscendens [12]. The “Herbicidal activity Stellaria media” value with Stellaria media [4] is 4 (herbicidal effect of not less than 70% by weight and less than 90% by weight); in the series with Stellaria media [13] it was 5 (herbicidal effect of not less than 90% by weight). Besides, the “Herbicidal activity Monochoria vaginalis” value in the series on Monochoria vaginalis is reported as 5 (herbicidal effect of not less than 90% by weight). Also, the “Herbicidal activity Ammannia multiflora” value in the series with Ammannia multiflora is recorded as 5 (herbicidal effect of not less than 90% by weight). Besides, in the series with Scirpus juncoides, the “Herbicidal activity Scirpus juncoides” value was 4 (herbicidal effect of not less than 70% by weight and less than 90% by weight). For the same compound, the “Herbicidal activity Triticum aestivum” value in [5] was 0 (herbicidal effect of not less than 0% by weight and less than 10% by weight); in series [7], 0 (herbicidal effect of not less than 0% by weight and less than 10% by weight). The “Herbicidal activity Glycine max” value with soybean (Glycine max) [6] is 0 (herbicidal effect of not less than 0% by weight and less than 10% by weight); in the series with soybean (Glycine max) [8], 0 (herbicidal effect of not less than 0% by weight and less than 10% by weight). The “Herbicidal activity Echinochloa spp.” value with Echinochloa spp. was 4 (herbicidal effect of not less than 70% by weight and less than 90% by weight). The “Herbicidal activity Oryza sativa” value in series [9] was 0 (herbicidal effect of not less than 0% by weight and less than 10% by weight).

As for `COC=C(Cn1nc(-c2cc(Cl)ccc2Cl)c(Cl)c1C)C(=O)OC` [Compound 22], the “Herbicidal activity Chenopodium album” value in the series on Chenopodium album [1] and with Chenopodium album [10] was 5 (herbicidal effect of not less than 90% by weight) in each case. In addition, the “Herbicidal activity Setaria viridis” value in the series on Setaria viridis [2] was 5 (herbicidal effect of not less than 90% by weight); with Setaria viridis [11], 4 (herbicidal effect of not less than 70% by weight and less than 90% by weight). The “Herbicidal activity Digitaria adscendens” value in the series with Digitaria adscendens [3] and with Digitaria adscendens [12] was 5 (herbicidal effect of not less than 90% by weight) in each case. The “Herbicidal activity Stellaria media” value with Stellaria media [4] and with Stellaria media [13] was 5 (herbicidal effect of not less than 90% by weight) in each case. The “Herbicidal activity Monochoria vaginalis” value in the series on Monochoria vaginalis was 5 (herbicidal effect of not less than 90% by weight). In the series on Ammannia multiflora, the “Herbicidal activity Ammannia multiflora” value is 5 (herbicidal effect of not less than 90% by weight). Further, the “Herbicidal activity Scirpus juncoides” value with Scirpus juncoides is 5 (herbicidal effect of not less than 90% by weight). Besides, the “Herbicidal activity Triticum aestivum” value in series [5] is 0 (herbicidal effect of not less than 0% by weight and less than 10% by weight); in series [7], 0 (herbicidal effect of not less than 0% by weight and less than 10% by weight). The “Herbicidal activity Glycine max” value was 0 (herbicidal effect of not less than 0% by weight and less than 10% by weight) in the series on soybean (Glycine max) [6]; 0 (herbicidal effect of not less than 0% by weight and less than 10% by weight) in the series with soybean (Glycine max) [8]. Besides, the “Herbicidal activity Echinochloa spp.” value in the series on Echinochloa spp. was 5 (herbicidal effect of not less than 90% by weight). In addition, the “Herbicidal activity Oryza sativa” value in [9] was 1 (herbicidal effect of not less than 10% by weight and less than 30% by weight).

Take `COC=C(Cn1cc(Cl)c(-c2ccccc2)n1)C(=O)OC` [Compound 15]: the “Herbicidal activity Chenopodium album” value in the series on Chenopodium album [1] and with Chenopodium album [10] was 5 (herbicidal effect of not less than 90% by weight) in each case. The “Herbicidal activity Setaria viridis” value in the series with Setaria viridis [2] and with Setaria viridis [11] was 5 (herbicidal effect of not less than 90% by weight) in each case. Further, the “Herbicidal activity Digitaria adscendens” value in the series on Digitaria adscendens [3] and with Digitaria adscendens [12] was 5 (herbicidal effect of not less than 90% by weight) each time. Also, the “Herbicidal activity Stellaria media” value with Stellaria media [4] and in the series with Stellaria media [13] was 5 (herbicidal effect of not less than 90% by weight) in each case. For the same compound, in the series with Monochoria vaginalis, the “Herbicidal activity Monochoria vaginalis” value is recorded as 5 (herbicidal effect of not less than 90% by weight). Besides, the “Herbicidal activity Ammannia multiflora” value in the series with Ammannia multiflora is listed as 5 (herbicidal effect of not less than 90% by weight). In addition, the “Herbicidal activity Scirpus juncoides” value with Scirpus juncoides is recorded as 5 (herbicidal effect of not less than 90% by weight). The “Herbicidal activity Triticum aestivum” value in series [5] was 0 (herbicidal effect of not less than 0% by weight and less than 10% by weight); in series [7], 0 (herbicidal effect of not less than 0% by weight and less than 10% by weight). In addition, the “Herbicidal activity Glycine max” value with soybean (Glycine max) [6] was 1 (herbicidal effect of not less than 10% by weight and less than 30% by weight); in the series with soybean (Glycine max) [8], 0 (herbicidal effect of not less than 0% by weight and less than 10% by weight). Moreover, the “Herbicidal activity Echinochloa spp.” value in the series on Echinochloa spp. is on record as 5 (herbicidal effect of not less than 90% by weight). Moreover, the “Herbicidal activity Oryza sativa” value in [9] was 0 (herbicidal effect of not less than 0% by weight and less than 10% by weight).
